The record followed here is patent publication US9539176B2 (BAYER PHARMA AKTIENGESELLSCHAFT, priority 2012, dated 2017).

The data set can be described thus: comparative stress test of the active coating suspension (60° C., 48 hours, HPLC). The data set is classed as physicochemical. Here is the method: The chemical stability of the coating suspension was verified by a comparative stress test: micronized candersartan cilexetil as a solid, an aqueous suspension of micronized candesartan cilexetil, and aqueous suspensions of micronized candesartan cilexetil together with Opadry II 85F19250 Clear in three different ratios were stored at 60° C. for 48 hours. The percentage of the stability indicating impurity Desethyl-Candesartan cilexetil was determined via HPLC. The same batch of micronized candesartan cilexetil has been used for all samples.

`CCOc1nc2cccc(C(=O)OC(C)OC(=O)OC3CCCCC3)c2n1Cc1ccc(-c2ccccc2-c2nnn[nH]2)cc1` (centres unmarked) [micronized candesartan cilexetil (solid), candesartan cilexetil]: the “Desethyl-Candesartan cilexetil, start” value (start, before storage) came out at 0.11%. For the same compound, where the note is “stored at 60° C. for 48 hours”, the “Desethyl-Candesartan cilexetil, 48 hours” value is 0.41%.
